Results published in US20100099561A1, “HETEROBICYCLIC ALKYLTHIO-BRIDGED ISOXAZOLINES” (E.I. DU PONT DE NEMOURS AND COMPANY, priority 2008, published 2010).

Legend:
Assay type in all cases: in vivo
[1] = system: barnyardgrass (Echinochloa crus-galli); test: Test A preemergence, barnyardgrass; conditions: 0 to 100 scale (0 no effect, 100 complete control)
Method in brief: (§1)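 Visual injury rating, 0 = no effect to 100 = complete control, made roughly ten days after treatment by comparison with untreated controls. Preemergence: directed soil spray onto freshly planted loam/sand. Postemergence: foliar application at one- to two-leaf stage, 2–10 cm height.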

[2] = system: large crabgrass (Digitaria sanguinalis); test: Test A preemergence, large crabgrass; conditions: 0 to 100 scale (0 no effect, 100 complete control)
Method in brief: as §1

[3] = system: giant foxtail (Setaria faberi); test: Test A preemergence, giant foxtail; conditions: 0 to 100 scale (0 no effect, 100 complete control)
Method in brief: as §1

[4] = system: morningglory (Ipomoea spp.); test: Test A preemergence, morningglory; conditions: 0 to 100 scale (0 no effect, 100 complete control)
Method in brief: as §1

[5] = system: pigweed (Amaranthus retroflexus); test: Test A preemergence, pigweed; conditions: 0 to 100 scale (0 no effect, 100 complete control)
Method in brief: as §1

[6] = system: velvetleaf (Abutilon theophrasti); test: Test A preemergence, velvetleaf; conditions: 0 to 100 scale (0 no effect, 100 complete control)
Method in brief: as §1

[7] = system: wheat (Triticum aestivum); test: Test A preemergence, wheat; conditions: 0 to 100 scale (0 no effect, 100 complete control)
Method in brief: as §1

[8] = system: corn (Zea mays); test: Test A preemergence, corn; conditions: 0 to 100 scale (0 no effect, 100 complete control)
Method in brief: as §1

[9] = system: barnyardgrass (Echinochloa crus-galli); test: Test A postemergence, barnyardgrass; conditions: 0 to 100 scale (0 no effect, 100 complete control)
Method in brief: as §1

[10] = system: large crabgrass (Digitaria sanguinalis); test: Test A postemergence, large crabgrass; conditions: 0 to 100 scale (0 no effect, 100 complete control)
Method in brief: as §1

[11] = system: giant foxtail (Setaria faberi); test: Test A postemergence, giant foxtail; conditions: 0 to 100 scale (0 no effect, 100 complete control)
Method in brief: as §1

[12] = system: morningglory (Ipomoea spp.); test: Test A postemergence, morningglory; conditions: 0 to 100 scale (0 no effect, 100 complete control)
Method in brief: as §1

[13] = system: pigweed (Amaranthus retroflexus); test: Test A postemergence, pigweed; conditions: 0 to 100 scale (0 no effect, 100 complete control)
Method in brief: as §1

[14] = system: velvetleaf (Abutilon theophrasti); test: Test A postemergence, velvetleaf; conditions: 0 to 100 scale (0 no effect, 100 complete control)
Method in brief: as §1

[15] = system: wheat (Triticum aestivum); test: Test A postemergence, wheat; conditions: 0 to 100 scale (0 no effect, 100 complete control)
Method in brief: as §1

[16] = system: corn (Zea mays); test: Test A postemergence, corn; conditions: 0 to 100 scale (0 no effect, 100 complete control)
Method in brief: as §1

[17] = system: rice (Oryza sativa); test: Test B flooded paddy test, rice; conditions: Flood, scale 0 to 100
Method in brief: (§2)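 Step one: raise plants to 2 leaves. Step two: flood pots 3 cm over the soil and apply compound into the water, keeping this depth. Step three: after 13–15 greenhouse days, score visually versus controls, 0–100, where 100 means complete control.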

[18] = system: umbrella sedge (Cyperus difformis); test: Test B flooded paddy test, umbrella sedge; conditions: Flood, scale 0 to 100
Method in brief: as §2

[19] = system: ducksalad (Heteranthera limosa); test: Test B flooded paddy test, ducksalad; conditions: Flood, scale 0 to 100
Method in brief: as §2

[20] = system: barnyardgrass (Echinochloa crus-galli); test: Test B flooded paddy test, barnyardgrass; conditions: Flood
Method in brief: as §2

Structure (SMILES) | Plant response rating, Barnyardgrass ([1]; 125 g ai/ha) | Plant response rating, Barnyardgrass ([1]; 500 g ai/ha) | Plant response rating, Crabgrass, Large ([2]; 125 g ai/ha) | Plant response rating, Crabgrass, Large ([2]; 500 g ai/ha) | Plant response rating, Foxtail, Giant ([3]; 125 g ai/ha) | Plant response rating, Foxtail, Giant ([3]; 500 g ai/ha) | Plant response rating, Morningglory ([4]; 125 g ai/ha) | Plant response rating, Morningglory ([4]; 500 g ai/ha) | Plant response rating, Pigweed ([5]; 125 g ai/ha) | Plant response rating, Pigweed ([5]; 500 g ai/ha) | Plant response rating, Velvetleaf ([6]; 125 g ai/ha) | Plant response rating, Velvetleaf ([6]; 500 g ai/ha) | Plant response rating, Wheat ([7]; 125 g ai/ha) | Plant response rating, Wheat ([7]; 500 g ai/ha) | Plant response rating, Corn ([8]; 125 g ai/ha) | Plant response rating, Corn ([8]; 500 g ai/ha) | Plant response rating, Barnyardgrass ([9]; 125 g ai/ha) | Plant response rating, Barnyardgrass ([9]; 500 g ai/ha) | Plant response rating, Crabgrass, Large ([10]; 125 g ai/ha) | Plant response rating, Crabgrass, Large ([10]; 500 g ai/ha) | also measured
CC1(C)CC(S(=O)(=O)Cc2c(C(F)(F)Cl)nc3n(c2=O)CCCC3)=NO1 [Compound 30] | 50 | 100 | 90 | 100 | 90 | 100 | 30 | 40 | 70 | 100 | 40 | 60 | 0 | 50 | 0 | 0 | 60 | 80 | 60 | 80 | Plant response rating, Foxtail, Giant ([11]; 125 g ai/ha): 60; Plant response rating, Foxtail, Giant ([11]; 500 g ai/ha): 80; Plant response rating, Morningglory ([12]; 125 g ai/ha): 10; Plant response rating, Morningglory ([12]; 500 g ai/ha): 50; Plant response rating, Pigweed ([13]; 125 g ai/ha): 50; Plant response rating, Pigweed ([13]; 500 g ai/ha): 60; Plant response rating, Velvetleaf ([14]; 125 g ai/ha): 20; Plant response rating, Velvetleaf ([14]; 500 g ai/ha): 50; Plant response rating, Wheat ([15]; 125 g ai/ha): 0; Plant response rating, Wheat ([15]; 500 g ai/ha): 50; Plant response rating, Corn ([16]; 125 g ai/ha): 0; Plant response rating, Corn ([16]; 500 g ai/ha): 0; Plant response rating, Rice ([17]; 31 g ai/ha): 0; Plant response rating, Rice ([17]; 125 g ai/ha): 0; Plant response rating, Sedge, Umbrella ([18]; 31 g ai/ha): 0; Plant response rating, Sedge, Umbrella ([18]; 125 g ai/ha): 0; Plant response rating, Ducksalad ([19]; 31 g ai/ha): 0; Plant response rating, Ducksalad ([19]; 125 g ai/ha): 0; Plant response rating, Barnyardgrass ([20]; 31 g ai/ha, scale 0 to 100): 0; Plant response rating, Barnyardgrass ([20]; 125 g ai/ha, scale 0 to 100): 0
Cn1c(=O)c(C[S+]([O-])C2=NOC(C)(C)C2)nc2ccccc21 (centres unmarked) [Compound 24] | 0 | 0 | 0 | 0 | 0 | 0 | 0 | 0 | 0 | 0 | 0 | 0 | 0 | 0 | 0 | 0 | 0 | 0 | 0 | 0 | Plant response rating, Foxtail, Giant ([11]; 125 g ai/ha): 0; Plant response rating, Foxtail, Giant ([11]; 500 g ai/ha): 0; Plant response rating, Morningglory ([12]; 125 g ai/ha): 0; Plant response rating, Morningglory ([12]; 500 g ai/ha): 0; Plant response rating, Pigweed ([13]; 125 g ai/ha): 0; Plant response rating, Pigweed ([13]; 500 g ai/ha): 0; Plant response rating, Velvetleaf ([14]; 125 g ai/ha): 0; Plant response rating, Velvetleaf ([14]; 500 g ai/ha): 0; Plant response rating, Wheat ([15]; 125 g ai/ha): 0; Plant response rating, Wheat ([15]; 500 g ai/ha): 0; Plant response rating, Corn ([16]; 125 g ai/ha): 0; Plant response rating, Corn ([16]; 500 g ai/ha): 0; Plant response rating, Rice ([17]; 62 g ai/ha): 30; Plant response rating, Rice ([17]; 250 g ai/ha): 30; Plant response rating, Sedge, Umbrella ([18]; 62 g ai/ha): 20; Plant response rating, Sedge, Umbrella ([18]; 250 g ai/ha): 30; Plant response rating, Ducksalad ([19]; 62 g ai/ha): 0; Plant response rating, Ducksalad ([19]; 250 g ai/ha): 30; Plant response rating, Barnyardgrass ([20]; 62 g ai/ha, scale 0 to 100): 0; Plant response rating, Barnyardgrass ([20]; 250 g ai/ha, scale 0 to 100 (0 no effect, 100 complete control)): 0
